From patent publication US5424456A, “N-arylalkylderivatives of 2-aminomethyl-2,3-dihydro-1,4-benzodioxine and the process of preparation thereof” (Vyzkumny Ustav Pro Farmacii A Biochemii s.p., priority 1991, dated 1995)

Legend:
blood pressure [1] = test: Hypotensive activity, pentobarbital anaesthesized dogs; format: in vivo, dog; conditions: i.v.
Source text: b) The blood pressure of pentobarbital anaesthesized dogs was registered invasively in arteria femoralis. The average decrease in systolic (SBP) arid diastolic (DBP) blood pressure expressed in per cents of the starting blood pressure level after intravenous and oral administration is shown in Tables 5 and 6.

calcium channel = target: T1, calcium channel (Rattus norvegicus, UniProt P22002); test: Calcium channel blocking activity, K+ depolarization-induced contraction of helically cut rat aortic strip; conditions: Krebs-Henselheit solution, 37° C., cumulative doses, read-out: IC50 (50% decrease of contraction of the aortic strip)
T1 construct: helically cut rat aortic strip; from tissue; host or cells: rat aorta (helically cut strip)
T1 sequence (P22002 whole entry): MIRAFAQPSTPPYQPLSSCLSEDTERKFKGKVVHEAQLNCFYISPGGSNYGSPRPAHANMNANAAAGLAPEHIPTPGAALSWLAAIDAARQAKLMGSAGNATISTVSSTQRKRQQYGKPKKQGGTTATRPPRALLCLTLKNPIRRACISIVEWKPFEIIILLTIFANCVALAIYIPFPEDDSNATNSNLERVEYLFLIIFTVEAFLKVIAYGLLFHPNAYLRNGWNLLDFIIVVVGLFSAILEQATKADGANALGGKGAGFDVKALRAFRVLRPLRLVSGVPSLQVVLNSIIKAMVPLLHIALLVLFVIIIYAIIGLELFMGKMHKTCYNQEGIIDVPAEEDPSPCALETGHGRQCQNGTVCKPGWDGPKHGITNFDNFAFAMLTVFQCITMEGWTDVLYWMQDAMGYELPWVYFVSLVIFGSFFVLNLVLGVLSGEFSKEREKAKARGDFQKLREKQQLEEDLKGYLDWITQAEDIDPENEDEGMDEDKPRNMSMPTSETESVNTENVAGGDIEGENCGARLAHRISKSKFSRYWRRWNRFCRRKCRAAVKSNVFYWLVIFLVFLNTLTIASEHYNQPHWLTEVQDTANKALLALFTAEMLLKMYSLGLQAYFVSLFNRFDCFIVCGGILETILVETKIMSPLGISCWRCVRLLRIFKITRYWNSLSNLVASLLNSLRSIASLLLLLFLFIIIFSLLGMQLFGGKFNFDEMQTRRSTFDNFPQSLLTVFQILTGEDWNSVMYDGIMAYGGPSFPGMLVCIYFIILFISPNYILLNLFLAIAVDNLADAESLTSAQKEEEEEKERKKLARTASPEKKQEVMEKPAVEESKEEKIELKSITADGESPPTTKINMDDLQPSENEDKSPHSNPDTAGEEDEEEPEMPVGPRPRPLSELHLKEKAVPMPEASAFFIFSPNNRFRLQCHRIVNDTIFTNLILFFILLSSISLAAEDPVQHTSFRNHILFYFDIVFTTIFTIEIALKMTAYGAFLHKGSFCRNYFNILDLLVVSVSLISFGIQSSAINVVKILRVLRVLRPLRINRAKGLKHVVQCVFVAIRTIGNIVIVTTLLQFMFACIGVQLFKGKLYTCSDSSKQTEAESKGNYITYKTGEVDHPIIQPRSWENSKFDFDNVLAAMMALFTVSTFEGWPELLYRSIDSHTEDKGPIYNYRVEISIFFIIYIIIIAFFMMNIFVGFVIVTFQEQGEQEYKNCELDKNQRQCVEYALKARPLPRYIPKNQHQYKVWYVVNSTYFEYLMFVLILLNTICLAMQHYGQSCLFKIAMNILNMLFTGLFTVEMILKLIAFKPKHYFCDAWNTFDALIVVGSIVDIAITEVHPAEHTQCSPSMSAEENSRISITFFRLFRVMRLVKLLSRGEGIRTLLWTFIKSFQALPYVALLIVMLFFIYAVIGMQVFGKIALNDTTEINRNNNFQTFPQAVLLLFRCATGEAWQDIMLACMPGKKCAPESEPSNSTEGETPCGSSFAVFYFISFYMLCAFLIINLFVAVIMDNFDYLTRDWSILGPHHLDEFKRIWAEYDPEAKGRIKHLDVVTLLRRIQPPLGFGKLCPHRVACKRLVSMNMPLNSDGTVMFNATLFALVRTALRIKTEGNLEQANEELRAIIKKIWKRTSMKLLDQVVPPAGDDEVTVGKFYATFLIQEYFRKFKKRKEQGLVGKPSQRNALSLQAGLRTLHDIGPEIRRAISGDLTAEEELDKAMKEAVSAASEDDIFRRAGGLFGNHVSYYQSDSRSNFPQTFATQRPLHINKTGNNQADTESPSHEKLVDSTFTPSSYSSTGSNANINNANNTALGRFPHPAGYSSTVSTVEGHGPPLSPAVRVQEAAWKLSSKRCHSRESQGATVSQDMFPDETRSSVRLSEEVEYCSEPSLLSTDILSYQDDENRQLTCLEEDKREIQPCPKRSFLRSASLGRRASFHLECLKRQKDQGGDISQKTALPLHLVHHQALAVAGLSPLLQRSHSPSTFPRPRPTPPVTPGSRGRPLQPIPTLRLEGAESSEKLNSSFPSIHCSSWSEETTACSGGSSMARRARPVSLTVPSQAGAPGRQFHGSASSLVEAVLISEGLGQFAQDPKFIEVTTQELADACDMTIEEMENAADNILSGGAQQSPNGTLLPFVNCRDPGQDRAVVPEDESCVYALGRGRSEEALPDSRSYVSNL
T1 sequence (P54290 25-1091 partner): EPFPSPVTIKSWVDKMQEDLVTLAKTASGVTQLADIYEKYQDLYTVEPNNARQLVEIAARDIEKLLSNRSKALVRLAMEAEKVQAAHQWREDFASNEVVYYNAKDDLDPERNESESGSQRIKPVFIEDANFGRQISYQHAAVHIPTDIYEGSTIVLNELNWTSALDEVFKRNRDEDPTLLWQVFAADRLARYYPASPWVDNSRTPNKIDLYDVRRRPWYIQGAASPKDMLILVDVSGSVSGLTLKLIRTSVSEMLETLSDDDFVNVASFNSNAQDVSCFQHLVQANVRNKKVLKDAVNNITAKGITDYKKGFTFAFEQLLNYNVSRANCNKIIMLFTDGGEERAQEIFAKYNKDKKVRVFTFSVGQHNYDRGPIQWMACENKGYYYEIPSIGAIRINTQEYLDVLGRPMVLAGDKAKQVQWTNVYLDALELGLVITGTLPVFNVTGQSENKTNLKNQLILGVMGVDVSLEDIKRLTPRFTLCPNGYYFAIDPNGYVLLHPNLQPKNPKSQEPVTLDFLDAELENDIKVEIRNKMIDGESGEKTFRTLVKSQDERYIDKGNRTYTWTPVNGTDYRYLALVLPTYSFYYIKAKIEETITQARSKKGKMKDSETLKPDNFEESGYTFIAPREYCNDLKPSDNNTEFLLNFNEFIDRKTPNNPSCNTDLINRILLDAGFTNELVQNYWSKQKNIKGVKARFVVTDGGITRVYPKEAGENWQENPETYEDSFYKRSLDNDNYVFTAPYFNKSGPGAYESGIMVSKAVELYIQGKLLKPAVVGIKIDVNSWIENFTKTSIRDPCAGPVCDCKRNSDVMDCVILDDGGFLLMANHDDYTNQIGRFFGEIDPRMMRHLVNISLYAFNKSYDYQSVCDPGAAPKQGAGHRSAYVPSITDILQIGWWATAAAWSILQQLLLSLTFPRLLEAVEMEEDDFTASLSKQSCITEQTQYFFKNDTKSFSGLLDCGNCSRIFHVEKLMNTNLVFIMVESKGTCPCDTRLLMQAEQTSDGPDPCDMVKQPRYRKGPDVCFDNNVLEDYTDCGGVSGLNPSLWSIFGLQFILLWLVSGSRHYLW
Description: The calcium channel blocking activity of the compounds was tested using a helically cut rat aortic strip in Krebs-Henselheit solution at 37° C., bubbled with a mixture of 95% O2 and 5% CO2. The isometrically registered contractions were induced by K^(+). depolarization. The test compounds were applied in a cumulative doses and the vasodilating activity thereof was expressed in calculated concentration of the test compound, causing 50% decrease of contraction of the aortic strip (IC50).

α-adrenergic = target: T2, α-adrenergic (Rattus norvegicus, UniProt P23944); test: α-adrenergic blocking activity, norepinephrine-induced contraction of helically cut rat aortic strip; conditions: 37° C., cumulative doses, read-out: IC50 (concentration causing 50% relaxation)
T2 construct: helically cut rat aortic strip; from tissue; host or cells: rat aorta (helically cut strip)
T2 sequence (P23944 1-561): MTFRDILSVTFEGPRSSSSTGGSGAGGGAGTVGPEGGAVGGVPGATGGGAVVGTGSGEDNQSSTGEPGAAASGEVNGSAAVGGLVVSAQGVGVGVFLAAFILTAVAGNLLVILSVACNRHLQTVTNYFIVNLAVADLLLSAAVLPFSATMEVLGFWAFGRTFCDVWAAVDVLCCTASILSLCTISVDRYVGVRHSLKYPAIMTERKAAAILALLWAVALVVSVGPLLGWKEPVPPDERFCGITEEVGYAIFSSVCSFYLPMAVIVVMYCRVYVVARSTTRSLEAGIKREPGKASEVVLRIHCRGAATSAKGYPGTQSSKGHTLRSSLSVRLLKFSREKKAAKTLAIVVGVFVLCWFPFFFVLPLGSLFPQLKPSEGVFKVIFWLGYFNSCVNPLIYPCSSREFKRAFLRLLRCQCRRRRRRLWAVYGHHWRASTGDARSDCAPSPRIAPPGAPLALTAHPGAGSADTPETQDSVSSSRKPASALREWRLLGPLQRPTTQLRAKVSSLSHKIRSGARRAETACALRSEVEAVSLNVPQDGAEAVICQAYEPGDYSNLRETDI
Description: a) The α-adrenergic blocking activity of the compounds was tested using a helically cut rat aortic strip in a Krebs-Henselheit solution at 37° C., bubbled with a mixture of 95% O2 and 5% CO2. Norepinephrine induced contractions were detected isometrically. The compounds were added in cumulative doses and the relaxing activity was expressed in per cents of the maximum norepinephrine contraction.

blood pressure [2] = test: Hypotensive activity, pentobarbital anaesthesized rabbits; format: in vivo, rabbit; conditions: i.v.
Source text: a) The blood pressure of pentobarbital anaesthesized rabbits was registered invasively in arteria femoralis. The average decrease in systolic (SBP) and diastolic (DBP) blood pressure expressed in per cents of the starting blood pressure level after intravenous and oral administration is shown in Tables 3 and 4.

[3] = compared to Verapamil; cited from earlier work
α-adrenergic receptors = conditions: cited from earlier work
[4] = 0.4 mg/kg, value 1 of 5 (heads 5/30/60/180 min; probably 1 min)
[5] = 0.4 mg/kg, value 2 of 5 (heads 5/30/60/180 min; probably 5 min)
[6] = 0.4 mg/kg, value 3 of 5 (heads 5/30/60/180 min; probably 30 min)
[7] = 0.4 mg/kg, value 4 of 5 (heads 5/30/60/180 min; probably 60 min)
[8] = 0.4 mg/kg, value 5 of 5 (heads 5/30/60/180 min; probably 180 min)
[9] = 4.0 mg/kg, value 1 of 5 (heads 5/30/60/180 min; probably 1 min)
[10] = 4.0 mg/kg, value 2 of 5 (heads 5/30/60/180 min; probably 5 min)
[11] = 4.0 mg/kg, value 3 of 5 (heads 5/30/60/180 min; probably 30 min)
[12] = 4.0 mg/kg, value 4 of 5 (heads 5/30/60/180 min; probably 60 min)
[13] = 4.0 mg/kg, value 5 of 5 (heads 5/30/60/180 min; probably 180 min)

Compound: CC(C)C(C#N)(CCCNCC1COc2ccccc2O1)c1ccccc1 (racemic) [VUFB 18087, 5-(2,3-dihydro-1,4-benzodioxin-2-ylmethylamino)-2-phenyl-2-isopropyl valeronitrile]
- decrease in diastolic blood pressure (DBP) (blood pressure [1]; [4]): -37 per cents
- decrease in systolic blood pressure (SBP) (blood pressure [1]; [4]): -33 per cents
- decrease in diastolic blood pressure (DBP) (blood pressure [1]; [5]): -27 per cents
- decrease in systolic blood pressure (SBP) (blood pressure [1]; [5]): -29 per cents
- decrease in diastolic blood pressure (DBP) (blood pressure [1]; [6]): -27 per cents
- decrease in systolic blood pressure (SBP) (blood pressure [1]; [6]): -29 per cents
- decrease in diastolic blood pressure (DBP) (blood pressure [1]; [7]): -13 per cents
- decrease in systolic blood pressure (SBP) (blood pressure [1]; [7]): -19 per cents
- decrease in diastolic blood pressure (DBP) (blood pressure [1]; [8]): -13 per cents
- decrease in systolic blood pressure (SBP) (blood pressure [1]; [8]): -4 per cents
- decrease in diastolic blood pressure (DBP) (blood pressure [1]; [9]): -62 per cents
- decrease in systolic blood pressure (SBP) (blood pressure [1]; [9]): -49 per cents
- decrease in diastolic blood pressure (DBP) (blood pressure [1]; [10]): -31 per cents
- decrease in systolic blood pressure (SBP) (blood pressure [1]; [10]): -32 per cents
- decrease in diastolic blood pressure (DBP) (blood pressure [1]; [11]): -31 per cents
- decrease in systolic blood pressure (SBP) (blood pressure [1]; [11]): -31 per cents
- decrease in diastolic blood pressure (DBP) (blood pressure [1]; [12]): -26 per cents
- decrease in systolic blood pressure (SBP) (blood pressure [1]; [12]): -27 per cents
- decrease in diastolic blood pressure (DBP) (blood pressure [1]; [13]): -26 per cents
- decrease in systolic blood pressure (SBP) (blood pressure [1]; [13]): -22 per cents
- IC50 (calcium channel): 8.5 µM
- IC50 (α-adrenergic): 76 µM
- decrease in diastolic blood pressure (DBP) (blood pressure [2]; 0.4 mg/kg, 1 min): -32 per cents
- decrease in systolic blood pressure (SBP) (blood pressure [2]; 0.4 mg/kg, 1 min): -10 per cents
- decrease in diastolic blood pressure (DBP) (blood pressure [2]; 0.4 mg/kg, 5 min): -16 per cents
- decrease in systolic blood pressure (SBP) (blood pressure [2]; 0.4 mg/kg, 5 min): -19 per cents
- decrease in diastolic blood pressure (DBP) (blood pressure [2]; 0.4 mg/kg, 30 min): -18 per cents
- decrease in systolic blood pressure (SBP) (blood pressure [2]; 0.4 mg/kg, 30 min): -17 per cents
- decrease in diastolic blood pressure (DBP) (blood pressure [2]; 0.4 mg/kg, 60 min): -16 per cents
- decrease in systolic blood pressure (SBP) (blood pressure [2]; 0.4 mg/kg, 60 min): -17 per cents
- decrease in diastolic blood pressure (DBP) (blood pressure [2]; 0.4 mg/kg, 180 min): -8 per cents
- decrease in systolic blood pressure (SBP) (blood pressure [2]; 0.4 mg/kg, 180 min): -14 per cents
- decrease in diastolic blood pressure (DBP) (blood pressure [2]; 4.0 mg/kg, 1 min): -58 per cents
- decrease in systolic blood pressure (SBP) (blood pressure [2]; 4.0 mg/kg, 1 min): -45 per cents
- decrease in diastolic blood pressure (DBP) (blood pressure [2]; 4.0 mg/kg, 5 min): -43 per cents
- decrease in systolic blood pressure (SBP) (blood pressure [2]; 4.0 mg/kg, 5 min): -45 per cents
- decrease in diastolic blood pressure (DBP) (blood pressure [2]; 4.0 mg/kg, 30 min): -29 per cents
- decrease in systolic blood pressure (SBP) (blood pressure [2]; 4.0 mg/kg, 30 min): -30 per cents
- decrease in diastolic blood pressure (DBP) (blood pressure [2]; 4.0 mg/kg, 60 min): -29 per cents
- decrease in systolic blood pressure (SBP) (blood pressure [2]; 4.0 mg/kg, 60 min): -31 per cents
- decrease in diastolic blood pressure (DBP) (blood pressure [2]; 4.0 mg/kg, 180 min): -32 per cents
- decrease in systolic blood pressure (SBP) (blood pressure [2]; 4.0 mg/kg, 180 min): -28 per cents

Compound: COc1ccc(CCN(C)CCCC(C#N)(c2ccccc2C)C(C)C)cc1OC (centres unmarked) [Mepamil]
- negative inotropic activity [3]: lower negative inotropic activity

Compound: c1ccc2c(c1)OCC(CN1CCCCC1)O2 (centres unmarked) [Piperoxan]
- α-adrenergic receptor blocking (α-adrenergic receptors): block the α-adrenergic receptors in a competitive manner
